The results in this text go back to patent US7081448B2, “Benzyllactobionamides as inhibitors of smooth muscle cell proliferation” (Wyeth, priority 1998, dated 2006).

In the assay the test system is Porcine Smooth Muscle Cell. As to the kind of experiment: Effects of compounds on cell proliferation using 3H thymidine incorporation. It counts as cell-based. The conditions noted are these: porcine smooth muscle cells, serum/growth factor stimulated; for IC50: 24–36 h, read-out: Porcine Smooth Muscle Cell Antiproliferation IC50; for Porcine Smooth Muscle Cell Antiproliferation, percent inhibition: @ 500 μM. On the procedure: The compounds of this invention are useful as antiproliferative agents. The following procedures show the evaluation of representative compounds of this invention in standard pharmacological test procedure which measured ability of the evaluated compound to inhibit smooth muscle cell proliferation
Effects of Compounds on Cell Proliferation Using ^3H Thymidine Incorporation
Human and porcine smooth muscle cells were tested in early passage (generally passage 3–7) at sub-confluent conditions. Cultures were grown in 16 mm (24 well) multi-well culture dishes in medium 199 supplemented with 10% fetal bovine serum and 2% antibiotic/antimycotic. At sub-confluence, the cells were placed in a defined serum free medium (AIM-V; Gibco) for 24–48 h prior to initiating the experimental protocol. […] Compounds were added to each well at 50 fold dilution (20 μL/well) and the plates were incubated for 24–36 h at 37° C. in 5% CO2. Compounds were initially dissolved in 50% ethanol and serially diluted into media. Compounds were routinely evaluated at concentrations from 1 to 100 μM. As a control, grade II porcine intestinal mucosal heparin (sodium salt) was routinely evaluated in all cell preparations at concentrations from 0.1 to 100 μg/mL. At the completion of the test procedure, plates were placed on ice, washed three times with ice cold phosphate buffered saline (PBS) and incubated in ice cold 10% trichloroacetic acid (TCA) got 30 min to remove acid soluble proteins. Solution was transferred to scintillation vials containing 0.4 N HCl (500 μL/vial to neutralize NaOH) and each well was rinsed two times with water (500 μL) for a total volume of 2 mL/vial. Data was obtained, in triplicate, for both control and experimental samples. Control (100%) data was obtained from maximally stimulated cells, as the result of growth factor or serum stimulation. Experimental data was obtained from cells maximally stimulated with growth factor or serum and treated with compound. Data are expressed as an IC50 or percent inhibition in Table I below.
For orientation: Dividing cells build labelled thymidine or BrdU into new DNA.

As to `CC(=O)OC[C@H]1O[C@@H](O[C@@H]([C@H](OC(C)=O)[C@@H](OC(C)=O)C(=O)NCc2ccccc2)[C@@H](COC(C)=O)OC(C)=O)[C@H](OC(C)=O)[C@@H](OC(C)=O)[C@H]1OC(C)=O` [Example 1, N-Benzyl-octa-O-acetyl-lactobionamide], the IC50 was 118 µM.
As to `CC(=O)OC[C@H]1O[C@@H](O[C@@H]([C@H](OC(C)=O)[C@@H](OC(C)=O)C(=O)NCc2ccc(N)cc2)[C@@H](COC(C)=O)OC(C)=O)[C@H](OC(C)=O)[C@@H](OC(C)=O)[C@H]1OC(C)=O` [Example 4, N-(4-Amino-benzyl)-octa-O-acetyl-lactobionamide], the “Porcine Smooth Muscle Cell Antiproliferation, percent inhibition” value is given as 30% @ 500.
The same measure, in the same setting: as for `CC(=O)OC[C@H]1O[C@@H](O[C@@H]([C@H](OC(C)=O)[C@@H](OC(C)=O)C(=O)NCc2cccc(N)c2)[C@@H](COC(C)=O)OC(C)=O)[C@H](OC(C)=O)[C@@H](OC(C)=O)[C@H]1OC(C)=O` [Example 5, N-(3-Amino-benzyl)-octa-O-acetyl-lactobionamide], the figure is 12% @ 500; as for “N-Benzyl-octa-O-sulfo-lactobionamide Octasodium Salt [Example 2]”, 45% @ 500.
On to “N-[3-(Acetylamino)-benzyl]-octa-O-sulfo-lactobionamide Octasodium Salt [Example 7]”, for which the IC50 came to 122 µM.
